Measured values reported in patent US20230399312A1, “SUBSTITUTED PYRIMIDINES AND METHODS OF USE” (THERAVANCE BIOPHARMA R&D IP, LLC, priority 2020, published 2023).

Experiments:
[1] = target: T1, recombinant human ALK5 (TGF-βR1) protein (Homo sapiens, UniProt P36897); experiment: Biochemical ALK5 (TGF-βR1) assay to measure pKi (LANCE Ultra ULight kinase assay); details: apparent pKi, converted from pIC50 by Cheng-Prusoff
T1 construct: purchased Life Technologies PR9075A
T1 sequence (P36897 34-503): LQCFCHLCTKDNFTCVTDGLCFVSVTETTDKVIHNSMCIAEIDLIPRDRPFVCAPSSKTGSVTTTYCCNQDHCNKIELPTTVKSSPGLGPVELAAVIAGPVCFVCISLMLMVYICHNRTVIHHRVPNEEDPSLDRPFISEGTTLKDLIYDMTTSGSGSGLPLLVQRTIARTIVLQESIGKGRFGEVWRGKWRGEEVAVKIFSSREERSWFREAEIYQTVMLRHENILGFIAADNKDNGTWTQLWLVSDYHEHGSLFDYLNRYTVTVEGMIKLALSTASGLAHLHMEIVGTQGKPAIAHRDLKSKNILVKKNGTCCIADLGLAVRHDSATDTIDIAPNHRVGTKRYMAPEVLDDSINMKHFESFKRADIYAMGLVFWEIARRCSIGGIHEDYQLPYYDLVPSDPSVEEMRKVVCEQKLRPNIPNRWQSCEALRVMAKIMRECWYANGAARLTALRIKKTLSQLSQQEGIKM
Outline: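 Cmpd + enzyme, 60 min RT; ATP from 125 μM (5×) stock, 60 min 37 °C; stop 12 mM EDTA/Eu anti-pThr1342 Topo2α Ab (pH 7.0 buffer); TR-FRET 665 nm. DMSO = max, SD-208 = min signal. 4-PL pIC50 → pKi (Cheng-Prusoff).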

[2] = tested on: TGF-β-stimulated SMAD3 phosphorylation in BEAS-2B cells; experiment: Cellular ALK5 potency assay, inhibition of TGF-β stimulated pSMAD3 formation in BEAS-2B cells; assay type: cell-based; details: Homo sapiens, pSMAD3, TGF-β 10 ng/mL, read-out: BEAS2B pIC50 (converted)
Outline: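 Potency is expressed as pIC50, based on dose-dependent reduction of TGF-β-induced pSMAD3 AlphaLISA signal relative to stimulated cells without compound. BEAS-2B cells received compound 1 h before a 30 min, 10 ng/mL TGF-β challenge.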

| SMILES | Ki [1] | IC50 [2] |
| --- | --- | --- |
| CCN1CCN(S(=O)(=O)c2ccc(Nc3nccc(Nc4ccnc(-c5cccc(C)n5)n4)n3)cc2)CC1 [Compound 38, N2-[4-(4-ethylpiperazin-1-yl)sulfonylphenyl]-N4-[2-(6-methyl-2-pyridyl)pyrimidin-4-yl]pyrimidine-2,4-diamine] | 0.0398 to 0.316 nM | 25.1 to 158 nM |
| Cc1cccc(-c2nccc(Nc3ccnc(Nc4cccc(CN5CCSCC5)c4)n3)n2)n1 [Compound 39, N4-[2-(6-methyl-2-pyridyl)pyrimidin-4-yl]-N2-[3-(thiomorpholinomethyl)phenyl] pyrimidine-2,4-diamine] | 0.0398 to 0.316 nM | 25.1 to 158 nM |
| Cc1cccc(-c2nccc(Nc3ccnc(Nc4csc(C(=O)NC5(CO)CCNC5)c4)n3)n2)n1 (stereo not drawn) [Compound 40, N-[3-(hydroxymethyl)pyrrolidin-3-yl]-4-[[4-[[2-(6-methyl-2-pyridyl)pyrimidin-4-yl]amino]pyrimidin-2-yl]amino]thiophene-2-carboxamide] | 0.0398 to 0.316 nM | 25.1 to 158 nM |
| Cc1cccc(-c2nccc(Nc3ccnc(Nc4ccc(N5CCNCC5CC(=O)OCC(C)C)cc4)n3)n2)n1 (stereo not drawn) [Compound 41, isobutyl 2-[1-[4-[[4-[[2-(6-methyl-2-pyridyl)pyrimidin-4-yl]amino]pyrimidin-2-yl]amino]phenyl]piperazin-2-yl]acetate] | 0.0398 to 0.316 nM | 25.1 to 158 nM |
| Cc1cccc(-c2nccc(Nc3ccnc(Nc4nc(C(=O)NCC5CNC5)cs4)n3)n2)n1 [Compound 42, N-(azetidin-3-ylmethyl)-2-[[4-[[2-(6-methyl-2-pyridyl)pyrimidin-4-yl]amino]pyrimidin-2-yl]amino]thiazole-4-carboxamide] | ≤ 0.0316 nM | 25.1 to 158 nM |
| Cc1cccc(-c2nccc(Nc3ccnc(Nc4ccccc4)n3)n2)n1 [Compound 43, N4-[2-(6-methyl-2-pyridyl)pyrimidin-4-yl]-N2-phenyl-pyrimidine-2,4-diamine] | 0.398 to 3.16 nM | ≤ 20 nM |
| Cc1cccc(-c2nccc(Nc3ccnc(Nc4nc(C(=O)NC5CNC5)cs4)n3)n2)n1 [Compound 44, N-(azetidin-3-yl)-2-[[4-[[2-(6-methyl-2-pyridyl)pyrimidin-4-yl]amino]pyrimidin-2-yl]amino]thiazole-4-carboxamide] | 0.0398 to 0.316 nM | 25.1 to 158 nM |
| Cc1cccc(-c2nccc(Nc3ccnc(Nc4cccc(CO)c4)n3)n2)n1 [Compound 45, [3-[[4-[[2-(6-methyl-2-pyridyl)pyrimidin-4-yl]amino]pyrimidin-2-yl]amino]phenyl]methanol] | 0.0398 to 0.316 nM | ≤ 20 nM |
| Cc1cccc(-c2nccc(Nc3ccnc(Nc4ccc(N5CCN[C@H](CO)C5)cc4)n3)n2)n1 [Compound 46, [(2S)-4-[4-[[4-[[2-(6-methyl-2-pyridyl)pyrimidin-4-yl]amino]pyrimidin-2-yl]amino]phenyl]piperazin-2-yl]methanol] | ≤ 0.0316 nM | 25.1 to 158 nM |
| CCOC(=O)Cn1cc(-c2ccc(Nc3nccc(Nc4ccnc(-c5cccc(C)n5)n4)n3)cc2)cn1 [Compound 47, ethyl 2-[4-[4-[[4-[[2-(6-methyl-2-pyridyl)pyrimidin-4-yl]amino]pyrimidin-2-yl]amino]phenyl]pyrazol-1-yl]acetate] | 0.398 to 3.16 nM | 25.1 to 158 nM |
| Cc1cccc(-c2nccc(Nc3ccnc(Nc4ccc(Cl)c(CN5CCNCC5)c4)n3)n2)n1 [Compound 49, N2-[4-chloro-3-(piperazin-1-ylmethyl)phenyl]-N4-[2-(6-methyl-2-pyridyl)pyrimidin-4-yl]pyrimidine-2,4-diamine] | 0.0398 to 0.316 nM | 25.1 to 158 nM |
| Cc1cccc(-c2nccc(Nc3ccnc(Nc4ccc(CN5CCC(C(=O)OC6CNC6)C5)cc4)n3)n2)n1 (stereo not drawn) [Compound 50, azetidin-3-yl 1-[[4-[[4-[[2-(6-methyl-2-pyridyl)pyrimidin-4-yl]amino]pyrimidin-2-yl]amino]phenyl]methyl] pyrrolidine-3-carboxylate] | 0.0398 to 0.316 nM | 25.1 to 158 nM |
| Cc1cccc(-c2nccc(Nc3ccnc(Nc4ccc(C(=O)O[C@H]5CCN(C)C5)cc4)n3)n2)n1 [Compound 51, [(3S)-1-methylpyrrolidin-3-yl] 4-[[4-[[2-(6-methyl-2-pyridyl)pyrimidin-4-yl]amino]pyrimidin-2-yl]amino]benzoate] | 0.0398 to 0.316 nM | 25.1 to 158 nM |
| Cc1cccc(-c2nccc(Nc3ccnc(Nc4ccc(C(=O)O[C@@H]5CCN(C)C5)s4)n3)n2)n1 [Compound 52, [(3R)-1-methylpyrrolidin-3-yl] 5-[[4-[[2-(6-methyl-2-pyridyl)pyrimidin-4-yl]amino]pyrimidin-2-yl]amino]thiophene-2-carboxylate] | 0.0398 to 0.316 nM | 25.1 to 158 nM |
| Cc1cccc(-c2nccc(Nc3ccnc(Nc4cnn(CCN)c4)n3)n2)n1 [Compound 53, N2-[1-(2-aminoethyl)pyrazol-4-yl]-N4-[2-(6-methyl-2-pyridyl)pyrimidin-4-yl]pyrimidine-2,4-diamine] | 0.0398 to 0.316 nM | 200 to 1260 nM |
| Cc1cccc(-c2nccc(Nc3ccnc(Nc4ccc(OCCO)cc4)n3)n2)n1 [Compound 54, 2-[4-[[4-[[2-(6-methyl-2-pyridyl)pyrimidin-4-yl]amino]pyrimidin-2-yl]amino]phenoxy]ethanol] | 0.398 to 3.16 nM | 25.1 to 158 nM |
| Cc1cccc(-c2nccc(Nc3ccnc(Nc4ccc(N5CCCC(C(=O)OC6CCN(C)C6)C5)cc4)n3)n2)n1 (stereo not drawn) [Compound 55, (1-methylpyrrolidin-3-yl) 1-[4-[[4-[[2-(6-methyl-2-pyridyl)pyrimidin-4-yl]amino]pyrimidin-2-yl]amino]phenyl]piperidine-3-carboxylate] | 0.0398 to 0.316 nM | 25.1 to 158 nM |
| Cc1cccc(-c2nccc(Nc3ccnc(Nc4ccc(-c5cnn(C)c5)cc4)n3)n2)n1 [Compound 56, N2-[4-(1-methylpyrazol-4-yl)phenyl]-N4-[2-(6-methyl-2-pyridyl)pyrimidin-4-yl]pyrimidine-2,4-diamine] | 0.398 to 3.16 nM | 25.1 to 158 nM |
| Cc1cccc(-c2nccc(Nc3ccnc(Nc4ccc(N5CCNCC5)c(CC(=O)OCC5CNC5)c4)n3)n2)n1 [Compound 57, azetidin-3-ylmethyl 2-[5-[[4-[[2-(6-methyl-2-pyridyl)pyrimidin-4-yl]amino]pyrimidin-2-yl]amino]-2-piperazin-1-yl-phenyl]acetate] | 0.0398 to 0.316 nM | 200 to 1260 nM |
| Cc1cccc(-c2nccc(Nc3ccnc(Nc4ccc(NC(=O)C5(O)CCNC5)cc4)n3)n2)n1 (stereo not drawn) [Compound 58, 3-hydroxy-N-[4-[[4-[[2-(6-methyl-2-pyridyl)pyrimidin-4-yl]amino]pyrimidin-2-yl]amino]phenyl]pyrrolidine-3-carboxamide] | 0.0398 to 0.316 nM | ≤ 20 nM |
| COC(=O)C1CCN(c2ccc(Nc3nccc(Nc4ccnc(-c5cccc(C)n5)n4)n3)cc2)CC1 [Compound 60, methyl 1-[4-[[4-[[2-(6-methyl-2-pyridyl)pyrimidin-4-yl]amino]pyrimidin-2-yl]amino]phenyl]piperidine-4-carboxylate] | 0.0398 to 0.316 nM | 25.1 to 158 nM |
| Cc1cccc(-c2nccc(Nc3ccnc(Nc4ccc(C)c(CO)c4)n3)n2)n1 [Compound 61, [2-methyl-5-[[4-[[2-(6-methyl-2-pyridyl)pyrimidin-4-yl]amino]pyrimidin-2-yl]amino]phenyl]methanol] | 0.0398 to 0.316 nM | 25.1 to 158 nM |
| COC(=O)c1ccc(Nc2nccc(Nc3ccnc(-c4cccc(C)n4)n3)n2)cc1 [Compound 62, methyl 4-[[4-[[2-(6-methyl-2-pyridyl)pyrimidin-4-yl]amino]pyrimidin-2-yl]amino]benzoate] | 0.398 to 3.16 nM | 25.1 to 158 nM |
| Cc1cccc(-c2nccc(Nc3ccnc(Nc4ccc(S(=O)(=O)N(C)CCN)cc4)n3)n2)n1 [Compound 63, N-(2-aminoethyl)-N-methyl-4-[[4-[[2-(6-methyl-2-pyridyl)pyrimidin-4-yl]amino]pyrimidin-2-yl]amino]benzenesulfonamide] | 0.0398 to 0.316 nM | 25.1 to 158 nM |
| COC[C@H]1CN(Cc2ccc(Nc3nccc(Nc4ccnc(-c5cccc(C)n5)n4)n3)cc2)CCN1 [Compound 64, N2-[4-[[(3R)-3-(methoxymethyl)piperazin-1-yl]methyl]phenyl]-N4-[2-(6-methyl-2-pyridyl)pyrimidin-4-yl]pyrimidine-2,4-diamine] | 0.0398 to 0.316 nM | 25.1 to 158 nM |
| Cc1cccc(-c2nccc(Nc3ccnc(Nc4ccc(NC[C@H]5CCCN5)cc4)n3)n2)n1 [Compound 65, N4-[2-(6-methyl-2-pyridyl)pyrimidin-4-yl]-N2-[4-[[(2R)-pyrrolidin-2-yl]methylamino]phenyl] pyrimidine-2,4-diamine] | 0.0398 to 0.316 nM | 25.1 to 158 nM |
| Cc1cccc(-c2nccc(Nc3ccnc(Nc4cccc(C(=O)OC5CCNCC5)c4)n3)n2)n1 [Compound 66, 4-piperidyl 3-[[4-[[2-(6-methyl-2-pyridyl)pyrimidin-4-yl]amino]pyrimidin-2-yl]amino]benzoate] | 0.398 to 3.16 nM | 25.1 to 158 nM |
